Data taken from US20040138199A1, “Benzoxazines and derivatives thereof as therapeutic agents” (priority 2002, published 2004).

What follows are molecules tested against T1, p101/p110γ protein (PI3Kγ) (Homo sapiens, UniProt P48736) (assay: PI3Kγ In Vitro Kinase Assay). Details: purified recombinant p101/p110γ with G protein β1/γ2 subunits; 20 μM ATP, 25 μM PIP2; 20 minutes at room temperature; radioactive PIP3 readout.
T1 construct: HA; made in house; host or cells: Spodoptera frugiperda (Sf9) cells, baculovirus coinfection
Assay type: biochemical
In short: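 Baculovirus/Sf9-expressed p101/p110γ (~2.7 nM) with G protein β1/γ2, 20 μM ATP plus [γ-32P]ATP, PIP2/PE micelles (25 μM PIP2, 300 μM PE, 10 mM MgCl2) in HEPES buffer. Reaction 20 min at room temperature, stopped with H3PO4; radiolabelled PIP3 counted on filters to derive IC50 (μM).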

T1 sequence (P48736 whole entry, species assumed): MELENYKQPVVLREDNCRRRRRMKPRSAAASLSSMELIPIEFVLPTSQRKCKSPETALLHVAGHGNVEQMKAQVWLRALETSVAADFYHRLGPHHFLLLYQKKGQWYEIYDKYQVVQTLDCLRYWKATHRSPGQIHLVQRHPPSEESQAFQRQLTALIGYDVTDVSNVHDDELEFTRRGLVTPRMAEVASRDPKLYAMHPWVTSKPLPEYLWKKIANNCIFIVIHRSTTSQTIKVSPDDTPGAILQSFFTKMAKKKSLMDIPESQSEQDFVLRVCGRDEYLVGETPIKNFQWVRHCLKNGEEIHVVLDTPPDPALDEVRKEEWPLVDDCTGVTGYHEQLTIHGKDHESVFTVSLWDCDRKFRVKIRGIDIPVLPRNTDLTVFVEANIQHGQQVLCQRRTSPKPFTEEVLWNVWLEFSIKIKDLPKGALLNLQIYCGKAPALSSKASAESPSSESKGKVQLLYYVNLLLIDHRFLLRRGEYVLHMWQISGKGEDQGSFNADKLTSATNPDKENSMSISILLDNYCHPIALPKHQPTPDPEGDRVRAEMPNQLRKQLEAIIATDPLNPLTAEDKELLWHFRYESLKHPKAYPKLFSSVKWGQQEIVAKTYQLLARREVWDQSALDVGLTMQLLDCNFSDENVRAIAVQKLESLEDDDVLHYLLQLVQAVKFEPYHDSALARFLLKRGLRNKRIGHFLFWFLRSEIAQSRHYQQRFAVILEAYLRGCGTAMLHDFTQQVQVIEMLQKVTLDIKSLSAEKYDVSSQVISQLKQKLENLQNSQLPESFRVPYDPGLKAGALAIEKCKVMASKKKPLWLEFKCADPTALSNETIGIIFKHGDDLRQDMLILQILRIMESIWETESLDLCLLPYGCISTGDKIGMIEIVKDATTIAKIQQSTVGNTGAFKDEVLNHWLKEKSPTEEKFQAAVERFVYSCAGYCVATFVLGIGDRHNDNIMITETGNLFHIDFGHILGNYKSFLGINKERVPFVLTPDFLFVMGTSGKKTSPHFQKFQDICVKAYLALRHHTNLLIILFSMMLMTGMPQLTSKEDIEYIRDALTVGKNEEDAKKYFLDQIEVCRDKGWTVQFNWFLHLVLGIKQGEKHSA
T1 sequence (Q8WYR1 whole entry partner, species assumed): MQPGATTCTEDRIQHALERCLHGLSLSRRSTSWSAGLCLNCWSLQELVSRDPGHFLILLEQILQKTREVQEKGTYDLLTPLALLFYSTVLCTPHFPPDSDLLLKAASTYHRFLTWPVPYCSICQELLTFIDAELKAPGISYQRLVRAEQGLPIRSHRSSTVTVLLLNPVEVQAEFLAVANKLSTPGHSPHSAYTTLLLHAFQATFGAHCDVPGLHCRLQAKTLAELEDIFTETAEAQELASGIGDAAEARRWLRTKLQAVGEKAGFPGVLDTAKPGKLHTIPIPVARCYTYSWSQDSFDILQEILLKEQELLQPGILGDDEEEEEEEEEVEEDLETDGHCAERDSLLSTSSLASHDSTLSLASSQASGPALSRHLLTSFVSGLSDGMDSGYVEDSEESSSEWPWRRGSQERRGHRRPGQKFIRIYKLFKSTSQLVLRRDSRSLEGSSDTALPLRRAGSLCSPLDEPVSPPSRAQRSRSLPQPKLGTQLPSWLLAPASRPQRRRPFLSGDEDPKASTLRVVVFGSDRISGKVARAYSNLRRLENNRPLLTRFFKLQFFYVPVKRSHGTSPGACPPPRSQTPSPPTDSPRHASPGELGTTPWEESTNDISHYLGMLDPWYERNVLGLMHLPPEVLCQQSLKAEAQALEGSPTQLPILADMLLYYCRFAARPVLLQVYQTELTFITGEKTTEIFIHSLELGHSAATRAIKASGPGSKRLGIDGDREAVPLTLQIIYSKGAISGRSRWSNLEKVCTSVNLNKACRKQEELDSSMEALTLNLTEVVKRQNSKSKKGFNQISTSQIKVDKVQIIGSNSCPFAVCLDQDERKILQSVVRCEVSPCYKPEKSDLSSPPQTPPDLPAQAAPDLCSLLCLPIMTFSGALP

IC50 [nM]	SMILES
84	CC(C(=O)N1CCOc2ccc(C=C3SC(=S)NC3=O)cc21)c1ccccc1 (stereo not shown) [Example 84, 5-[4-(2-Phenyl-propionyl)-3,4-dihydro-2H-benzo[1,4]oxazin-6-ethylene]-2-thioxo-thiazolidin-4-one]
545	CCc1ccc(C(=O)N2CCOc3ccc(C=C4SC(=S)NC4=O)cc32)cc1 [Example 26, 5-[4-(4-Ethyl-benzoyl)-3,4-dihydro-2H-1,4-benzoxazin-6-ylmethylene]-2-thioxo-thiazolidin-4-one]
2180	CC1COc2ccc(C=C3SC(=S)NC3=O)cc2N1C(=O)c1ccccc1 (stereo not shown) [Example 8, 5-[3-Methyl-4-(-phenyl-methanoyl)-3,4-dihydro-2H-benzo[1,4]oxazine-6-ylmethylene]-2-thioxo-thiazolidin-4-one]
53	O=C1NC(=S)SC1=Cc1ccc2c(c1)N(C(=O)Cc1ccc3ccccc3c1)CCO2 [Example 11, 5-[4-(2-Naphthalen-2-yl-acetyl)-3,4-dihydro-2H-benzo[1,4]oxazine-6-ylmethylene]-2-thioxo-thiazolidin-4-one]
